Measured values from patent US20210290524A1, “TOPICAL TRPV1 ANTAGONISTS AND METHODS AND COMPOSITIONS THEREOF” (CHILDREN'S MEDICAL CENTER CORPORATION, priority 2016, published 2021).
Ends that are not written are not given here.

Experiments:
[1] = target: T1, TRPV1 (Homo sapiens, UniProt Q8NER1); conditions: applied topically; cited from earlier work
[2] = target: T2, TRPV1 (Mus musculus, UniProt Q704Y3); test: whole cell patch clamp of capsaicin-induced currents in primary murine DRG neurons; assay type: cell-based; design: capsaicin-induced currents in primary murine DRG neurons using whole cell patch clamp; endogenous in cells; host or cells: primary murine dorsal root ganglion (DRG) neurons; conditions: for block of capsaicin-induced currents by opiorphin family peptides: DRG neurons
[3] = target: T2, TRPV1
[4] = system: TrpV1 expressing afferents; test: in vivo calcium imaging of injury-activated trigeminal ganglion neurons, topical capsaicin; design: species or system mouse; conditions: topical 5 mM capsaicin after incision injury, 32 of 38 neurons
Excerpt: FIG. 9A is a micrograph of calcium imaging field in trigeminal ganglion of VGlut2^Cre; Rosa26^LSL-GCαMP6f mouse, with neurons active after injury highlighted. Scale bar is 100 μm. […] (The VGlut2^Cre; Rosa26^LSL-GCαMP6f mouse is generated by crossing a VGlut2-Cre mice with a […] mice, therefore the resulting double transgenic VGlut2^Cre; Rosa26^LSL-GCαMP6f mice express tD-Tomato (a red fluorescence protein) in all the sensory neurons but not in any other type of neuron. This allows for labeling and imaging of only sensory neurons in vivo.)
The inventors assessed effect of topical TRPV1 agonist capsaicin applied after acute injury and wound in a mouse model in vivo. […] Capsaicin, a TRPV1 agonist, was later applied to the same region to determine that an unexpected high number of neurons, […] of neurons activated by injury were also TRPV1-positive.

[5] = target: rTRPV1 (Rattus norvegicus, UniProt O35433)
Protocol: To identify if the antagonists were peptides, we purified saliva through a 30 kDa filter to eliminate large proteins and then used reverse-phase HPLC to fractionate the samples (FIG. 1B). […] The resultant 37 1 mL-fractions were dried, reconstituted in HBSS and screened on HEK cells transiently transfected with TRPV1 (FIG. 1C).

[6] = target: T2, TRPV1; conditions: 5 nmol/mouse with capsaicin 5 nmol/mouse, paw injection
Excerpt: Injection of capsaicin into a paw produces a short bout of biting and licking.

[7] = target: T1, TRPV1; conditions: HEK293 cells transiently expressing hTRPV1
[8] = target: rat TRPV1 (Rattus norvegicus, UniProt O35433); conditions: 1 μM
[9] = system: TRPV1 pore turret domain mutants (G603-N626); conditions: deletion and substitution mutations
[10] = system: TRPV1; conditions: pH 5.6; 1 μM
[11] = target: TRPA1 (Mus musculus, UniProt Q8BLA8); conditions: 30 μM; AITC 50 μM
[12] = target: TRPM8 (Mus musculus, UniProt Q8R4D5); conditions: 30 μM; Menthol 100 μM
[13] = target: TRPV4 (Mus musculus, UniProt Q9EPK8); conditions: 30 μM; GSK 1016790A 1 μM
[14] = target: P2X3 (Mus musculus, UniProt Q3UR32); conditions: 30 μM; α,β-methylene-ATP 30 μM
[15] = target: T2, TRPV1; conditions: Hot-plate test 52±0.1° C.
[16] = target: T2, TRPV1; conditions: Von frey filaments
[17] = target: T2, TRPV1; test: capsaicin-induced calcium flux in primary murine DRG neurons (plate-based/FLIPR); assay type: cell-based; design: capsaicin-induced currents in primary murine DRG neurons using whole cell patch clamp; endogenous in cells; host or cells: primary murine dorsal root ganglion (DRG) neurons; conditions: DRG neuron, read-out: inhibition of capsaicin-induced calcium flux
Excerpt: To test the possibility that saliva may inhibit the TRPV1 heat pain receptor^12-14 in nociceptors, we collected samples of whole saliva from four human donors and ran a screen on primary murine dorsal root ganglion (DRG) neurons.

T2 sequence (Q704Y3 whole entry): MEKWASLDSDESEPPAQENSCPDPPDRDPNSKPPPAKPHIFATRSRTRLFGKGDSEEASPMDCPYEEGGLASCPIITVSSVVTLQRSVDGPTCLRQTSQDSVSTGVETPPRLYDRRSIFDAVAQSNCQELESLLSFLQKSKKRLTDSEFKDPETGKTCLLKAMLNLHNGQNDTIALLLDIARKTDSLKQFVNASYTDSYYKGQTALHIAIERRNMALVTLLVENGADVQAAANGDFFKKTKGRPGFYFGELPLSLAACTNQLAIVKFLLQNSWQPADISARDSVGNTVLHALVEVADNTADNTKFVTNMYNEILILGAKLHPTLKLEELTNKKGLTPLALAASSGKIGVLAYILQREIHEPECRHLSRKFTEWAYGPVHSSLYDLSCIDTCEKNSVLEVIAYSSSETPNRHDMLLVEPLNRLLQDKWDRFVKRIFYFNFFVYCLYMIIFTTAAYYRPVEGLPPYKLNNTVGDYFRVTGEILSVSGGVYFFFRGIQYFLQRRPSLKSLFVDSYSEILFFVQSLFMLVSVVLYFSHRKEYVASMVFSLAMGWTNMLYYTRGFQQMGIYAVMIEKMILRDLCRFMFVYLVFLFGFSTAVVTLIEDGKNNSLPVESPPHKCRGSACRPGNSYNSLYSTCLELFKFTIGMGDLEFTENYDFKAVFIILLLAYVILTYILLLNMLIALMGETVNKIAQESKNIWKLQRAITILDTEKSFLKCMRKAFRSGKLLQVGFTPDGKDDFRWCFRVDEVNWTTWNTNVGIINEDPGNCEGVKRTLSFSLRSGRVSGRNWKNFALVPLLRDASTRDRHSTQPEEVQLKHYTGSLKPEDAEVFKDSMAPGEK
T1 sequence (Q8NER1 whole entry): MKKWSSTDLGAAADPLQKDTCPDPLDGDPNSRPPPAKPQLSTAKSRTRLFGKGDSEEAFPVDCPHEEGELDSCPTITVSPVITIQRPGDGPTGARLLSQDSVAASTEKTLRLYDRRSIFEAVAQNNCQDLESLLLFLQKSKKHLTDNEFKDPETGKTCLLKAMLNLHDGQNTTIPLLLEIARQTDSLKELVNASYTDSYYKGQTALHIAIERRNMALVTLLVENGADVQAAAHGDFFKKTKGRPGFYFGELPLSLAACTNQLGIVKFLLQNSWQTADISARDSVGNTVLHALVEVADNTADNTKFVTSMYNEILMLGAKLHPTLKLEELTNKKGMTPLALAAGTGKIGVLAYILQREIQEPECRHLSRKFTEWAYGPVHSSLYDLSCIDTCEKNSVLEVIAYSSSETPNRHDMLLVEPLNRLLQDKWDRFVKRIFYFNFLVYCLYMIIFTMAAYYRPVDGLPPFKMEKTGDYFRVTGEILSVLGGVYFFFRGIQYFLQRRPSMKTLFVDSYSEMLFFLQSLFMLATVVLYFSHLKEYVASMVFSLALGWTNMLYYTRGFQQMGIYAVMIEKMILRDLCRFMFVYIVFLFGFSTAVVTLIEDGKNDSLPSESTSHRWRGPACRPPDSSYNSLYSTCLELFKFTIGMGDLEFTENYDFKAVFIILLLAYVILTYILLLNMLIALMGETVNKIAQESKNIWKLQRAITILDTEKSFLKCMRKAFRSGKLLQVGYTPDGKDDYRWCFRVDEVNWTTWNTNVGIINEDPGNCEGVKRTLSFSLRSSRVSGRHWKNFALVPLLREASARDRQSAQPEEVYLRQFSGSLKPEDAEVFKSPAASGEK
Sequence of rat TRPV1 (O35433 whole entry, the tested form may be a part): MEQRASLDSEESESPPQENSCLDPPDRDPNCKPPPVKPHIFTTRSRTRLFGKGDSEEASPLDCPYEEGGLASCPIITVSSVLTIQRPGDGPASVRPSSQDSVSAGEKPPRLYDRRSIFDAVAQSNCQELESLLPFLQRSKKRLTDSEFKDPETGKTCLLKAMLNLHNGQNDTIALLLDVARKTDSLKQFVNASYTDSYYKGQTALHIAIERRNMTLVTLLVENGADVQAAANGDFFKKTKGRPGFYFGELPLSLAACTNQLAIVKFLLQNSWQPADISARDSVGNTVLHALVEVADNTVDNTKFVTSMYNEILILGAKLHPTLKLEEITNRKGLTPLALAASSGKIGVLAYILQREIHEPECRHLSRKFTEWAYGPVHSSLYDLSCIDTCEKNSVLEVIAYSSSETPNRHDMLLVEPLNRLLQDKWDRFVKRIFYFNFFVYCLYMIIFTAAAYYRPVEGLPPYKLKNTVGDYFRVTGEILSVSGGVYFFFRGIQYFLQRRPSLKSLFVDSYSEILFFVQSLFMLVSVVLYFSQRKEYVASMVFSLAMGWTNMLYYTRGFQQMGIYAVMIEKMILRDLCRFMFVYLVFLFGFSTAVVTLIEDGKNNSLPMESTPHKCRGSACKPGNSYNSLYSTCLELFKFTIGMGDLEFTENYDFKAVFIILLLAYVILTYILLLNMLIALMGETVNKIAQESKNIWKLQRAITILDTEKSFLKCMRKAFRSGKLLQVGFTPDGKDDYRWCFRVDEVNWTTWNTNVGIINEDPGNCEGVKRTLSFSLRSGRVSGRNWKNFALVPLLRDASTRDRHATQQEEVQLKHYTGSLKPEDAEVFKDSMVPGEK
Sequence of rTRPV1 (O35433 whole entry): as the sequence (O35433 whole entry, the tested form may be a part) above
Sequence of P2X3 (Q3UR32 whole entry): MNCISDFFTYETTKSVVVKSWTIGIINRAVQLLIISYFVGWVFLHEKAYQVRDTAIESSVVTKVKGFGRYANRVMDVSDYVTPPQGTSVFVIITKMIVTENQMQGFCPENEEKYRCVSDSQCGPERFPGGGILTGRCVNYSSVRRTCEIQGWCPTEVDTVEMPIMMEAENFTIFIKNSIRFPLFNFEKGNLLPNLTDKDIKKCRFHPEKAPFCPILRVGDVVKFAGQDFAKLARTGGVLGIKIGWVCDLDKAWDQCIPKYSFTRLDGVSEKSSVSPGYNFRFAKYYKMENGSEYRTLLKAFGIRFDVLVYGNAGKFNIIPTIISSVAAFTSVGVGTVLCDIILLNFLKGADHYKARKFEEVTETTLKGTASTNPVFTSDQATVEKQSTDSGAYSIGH
Sequence of TRPA1 (Q8BLA8 whole entry): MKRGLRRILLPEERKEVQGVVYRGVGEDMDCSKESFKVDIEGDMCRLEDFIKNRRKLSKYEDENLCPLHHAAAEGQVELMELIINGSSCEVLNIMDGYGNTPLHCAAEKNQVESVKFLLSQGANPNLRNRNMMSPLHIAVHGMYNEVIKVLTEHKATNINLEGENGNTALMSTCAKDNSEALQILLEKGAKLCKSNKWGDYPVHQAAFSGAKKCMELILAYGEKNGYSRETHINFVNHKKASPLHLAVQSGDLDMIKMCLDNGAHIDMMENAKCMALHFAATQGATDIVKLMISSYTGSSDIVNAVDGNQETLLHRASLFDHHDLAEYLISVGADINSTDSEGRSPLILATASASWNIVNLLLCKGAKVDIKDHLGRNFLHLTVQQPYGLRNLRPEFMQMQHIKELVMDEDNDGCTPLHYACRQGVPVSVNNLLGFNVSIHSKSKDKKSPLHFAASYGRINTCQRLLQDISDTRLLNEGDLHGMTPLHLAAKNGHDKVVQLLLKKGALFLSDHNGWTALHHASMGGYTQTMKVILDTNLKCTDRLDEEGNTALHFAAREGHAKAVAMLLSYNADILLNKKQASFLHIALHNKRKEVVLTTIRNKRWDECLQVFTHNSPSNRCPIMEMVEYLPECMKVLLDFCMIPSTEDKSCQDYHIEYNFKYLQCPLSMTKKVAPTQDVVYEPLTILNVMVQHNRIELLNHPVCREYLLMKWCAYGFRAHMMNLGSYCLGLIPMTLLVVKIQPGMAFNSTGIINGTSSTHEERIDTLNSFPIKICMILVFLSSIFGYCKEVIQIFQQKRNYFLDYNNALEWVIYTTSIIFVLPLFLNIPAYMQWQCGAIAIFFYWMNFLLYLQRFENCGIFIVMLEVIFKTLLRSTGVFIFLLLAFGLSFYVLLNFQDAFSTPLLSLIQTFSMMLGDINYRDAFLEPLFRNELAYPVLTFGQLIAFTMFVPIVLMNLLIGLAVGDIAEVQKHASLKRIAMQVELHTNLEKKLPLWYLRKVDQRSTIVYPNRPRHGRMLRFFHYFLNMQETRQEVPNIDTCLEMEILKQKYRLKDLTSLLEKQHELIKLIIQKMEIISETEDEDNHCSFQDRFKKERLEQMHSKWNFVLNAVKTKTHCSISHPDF
Sequence of TRPV4 (Q9EPK8 whole entry): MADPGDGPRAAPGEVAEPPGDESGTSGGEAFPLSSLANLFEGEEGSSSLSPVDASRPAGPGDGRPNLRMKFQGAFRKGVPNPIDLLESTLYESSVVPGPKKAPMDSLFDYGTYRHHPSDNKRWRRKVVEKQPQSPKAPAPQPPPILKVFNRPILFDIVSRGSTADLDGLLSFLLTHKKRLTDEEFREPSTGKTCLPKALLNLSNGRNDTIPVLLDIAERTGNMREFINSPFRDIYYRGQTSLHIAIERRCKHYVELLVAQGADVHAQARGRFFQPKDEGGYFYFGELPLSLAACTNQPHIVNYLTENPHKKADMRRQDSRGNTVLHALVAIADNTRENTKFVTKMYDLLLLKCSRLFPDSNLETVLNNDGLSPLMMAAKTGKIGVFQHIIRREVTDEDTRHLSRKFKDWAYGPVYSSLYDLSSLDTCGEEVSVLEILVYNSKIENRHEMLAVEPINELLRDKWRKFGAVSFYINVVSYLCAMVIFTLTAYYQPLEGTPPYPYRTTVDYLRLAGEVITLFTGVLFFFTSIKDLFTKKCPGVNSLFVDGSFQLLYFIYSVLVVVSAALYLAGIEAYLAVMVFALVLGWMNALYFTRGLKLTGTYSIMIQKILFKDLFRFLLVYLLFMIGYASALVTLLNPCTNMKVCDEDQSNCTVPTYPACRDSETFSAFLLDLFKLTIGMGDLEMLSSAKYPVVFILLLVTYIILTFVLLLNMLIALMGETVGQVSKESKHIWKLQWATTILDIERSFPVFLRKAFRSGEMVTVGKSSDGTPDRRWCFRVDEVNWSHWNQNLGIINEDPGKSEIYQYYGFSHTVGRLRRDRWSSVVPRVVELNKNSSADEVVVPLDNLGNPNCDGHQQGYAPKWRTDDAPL

O=C(Nc1ccccc1Br)N[C@@H]1CCN(c2ccc(C(F)(F)F)cn2)C1 [SB705498]
symptomatic benefit for induced itch [1]: not to be of symptomatic benefit

SMR3 peptide: SMR3 peptide (QRGPR; SEQ ID NO: 5) of the opiorphin family [reference compound]
block of capsaicin-induced currents by opiorphin family peptides [2]: no such activity

CC(C)(C)c1ccc(/C=C/C(=O)Nc2ccc3c(c2)OCCO3)cc1 [AMG 9810, (E)-3-(4-t-butylphenyl)-N-(2,3-dihydrobenzo[b][1,4]dioxin-6-yl)acrylamide, reference compound]
acute licking of superficial paw incision wound ([3]; topical 30 μM, mice): reduced

COc1cc(CNC(=O)CCCC/C=C/C(C)C)ccc1O [capsaicin]
injury-activated neurons responding to capsaicin [4]: 84% | injury-activated neurons responding to capsaicin ([4]; listed as Capsaicin): ~86%

QRFSR [opiorphin]
peak efficacy of capsaicin reduced to ([5]; 100 nM opiorphin): ~50% | mode of inhibition versus capsaicin ([5]; no rightward-shift of capsaicin curve): non-competitively | capsaicin-induced licking response [6]: significantly reduced | inhibition of capsaicin-induced currents [7]: inhibited capsaicin-induced currents | inhibition of resiniferatoxin action ([8]; RTX 100 nM, HEK293 rTRPV1): inhibited the action | antagonism of capsaicin-evoked currents across voltages ([8]; capsaicin 1 μM, HEK293 rat TRPV1): antagonized capsaicin-evoked currents at all voltages tested | inhibitory activity on pore turret mutants [9]: loss of opiorphin inhibitory activity | inhibition of proton-induced currents [10]: strongly inhibited | inhibition of calcium flux by TRPA1 agonist [11]: did not inhibit | inhibition of calcium flux by TRPM8 agonist [12]: did not inhibit | inhibition of calcium flux by TRPV4 agonist [13]: did not inhibit | inhibition of calcium flux by P2X3 agonist [14]: did not inhibit | thermal hypersensitivity after capsaicin injection [15]: reduced | mechanical hypersensitivity after capsaicin injection [16]: reduced | licking/biting response to superficial paw incision ([3]; topical 10 μM, 5 s, C57 mice, vs topical saline): eliminated | inhibition at 1 µM [17]: ~50% | block of capsaicin-induced currents [2]: effectively eliminated | effect on TRPV1 currents, external application [2]: substantially reduced | effect on TRPV1 currents, internal application [2]: no change in TRPV1 currents was detected | inhibition of capsaicin currents when applied into capsaicin application [2]: inhibited capsaicin currents | ability to block capsaicin-evoked currents after pertussis toxin ([2]; PTX 1 μg/mL, 3 hours): remained intact

sialorphin: rat peptide sialorphin (QHNPR, SEQ ID NO: 4) of the opiorphin family (listed as Rattus norvegicus) [reference compound]
block of capsaicin-induced currents by opiorphin family peptides [2]: blocked capsaicin-induced currents
